The values that follow come from patent publication US20050009894A1 (Aventis Pharma S.A., priority 2001, published 2005).

T1 sequence (P35968 786-1356 limits assumed): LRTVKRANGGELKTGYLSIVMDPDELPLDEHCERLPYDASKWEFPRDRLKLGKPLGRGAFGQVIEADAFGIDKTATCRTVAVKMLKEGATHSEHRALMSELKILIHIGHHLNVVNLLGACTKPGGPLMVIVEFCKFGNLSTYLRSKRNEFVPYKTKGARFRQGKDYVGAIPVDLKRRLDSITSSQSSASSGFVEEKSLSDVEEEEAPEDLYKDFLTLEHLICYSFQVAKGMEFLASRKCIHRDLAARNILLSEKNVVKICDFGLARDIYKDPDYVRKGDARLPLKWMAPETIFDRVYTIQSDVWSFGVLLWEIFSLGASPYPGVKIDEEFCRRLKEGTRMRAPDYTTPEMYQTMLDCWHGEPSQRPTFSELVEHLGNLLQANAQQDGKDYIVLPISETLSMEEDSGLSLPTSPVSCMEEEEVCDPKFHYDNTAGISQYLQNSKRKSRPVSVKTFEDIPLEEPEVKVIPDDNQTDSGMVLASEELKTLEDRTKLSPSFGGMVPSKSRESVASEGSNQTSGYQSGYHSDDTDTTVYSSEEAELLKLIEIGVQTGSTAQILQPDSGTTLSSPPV

This experiment addresses T1, human KDR enzyme (Homo sapiens, UniProt P35968).
T1 construct: The cytoplasmic domain of human KDR enzyme is cloned in the form of a GST fusion; GST; made in house; host or cells: SF21 insect cells (baculovirus, pFastBac)
The experiment is described as follows: Phosphorylation of the substrate PLCγ by the enzyme KDR in vitro (flashplate technique). In kind it is biochemical. The conditions noted are these: Table VII, degrees of activity by IC50 range; read-out: Activity. The method in brief: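 GST-fused human KDR cytoplasmic domain (Sf21 baculovirus, ~60% pure; 100 ng/well) phosphorylating 2 μg GST-PLCγ SH2-SH3 fragment in MOPS pH 7.2 with MgCl2/MnCl2, 1 h at 37° C. Started with γ33P-ATP plus cold ATP (2 μM in start solution); flashplate radioactivity. % inhibition vs no-compound control; IC50 from dose-response curves.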
Regarding `COc1ccc(-c2ccc3nc(-c4[nH]nc5ccccc45)[nH]c3c2)cc1` [Example 102, 3-[6-(4-Methoxy-phenyl)-1H-benzoimidazol-2-yl]-2H-indazole], the IC50 lay within 0.3 to 3 µM. On to `Fc1ccc(-c2ccc3nc(-c4[nH]nc5ccccc45)[nH]c3c2)cc1Cl` [Example 103, 3-[6-(3-Chloro-4-fluoro-phenyl)-1H-benzoimidazol-2-yl]-2H-indazole], for which the IC50 is 0.3 to 3 µM. The same measure for `Clc1cc(Cl)cc(-c2ccc3nc(-c4[nH]nc5ccccc45)[nH]c3c2)c1` [Example 104, 3-[6-(3,5-Dichloro-phenyl)-1H-benzoimidazol-2-yl]-2H-indazole]: greater than 3 µM. Turning to `c1ccc2c(c1)Sc1cccc(-c3ccc4nc(-c5n[nH]c6ccccc56)[nH]c4c3)c1S2` [Example 105, 3-(6-Thianthren-1-yl-1H-benzoimidazol-2-yl)-2H-indazole], the IC50 is greater than 3 µM. As to `c1ccc(-c2ccc(-c3ccc4nc(-c5[nH]nc6ccccc56)[nH]c4c3)cc2)cc1` [Example 106, 3-(6-Biphenyl-4-yl-1H-benzoimidazol-2-yl)-2H-indazole], the IC50 was greater than 3 µM. Regarding `Cc1ccc(-c2ccc3nc(-c4[nH]nc5ccccc45)[nH]c3c2)cc1` [Example 107, 3-(6-p-Tolyl-1H-benzoimidazol-2-yl)-2H-indazole], the IC50 was greater than 3 µM. As for `Cc1cccc(-c2ccc3nc(-c4[nH]nc5ccccc45)[nH]c3c2)c1` [Example 108, 3-(6-m-Tolyl-1H-benzoimidazol-2-yl)-2H-indazole], the IC50 was 0.3 to 3 µM. For `Cc1ccccc1-c1ccc2nc(-c3[nH]nc4ccccc34)[nH]c2c1` [Example 109, 3-(6-o-Tolyl-1H-benzoimidazol-2-yl)-2H-indazole], the IC50 was 0.3 to 3 µM.

As for `c1ccc2c(-c3nc4ccc(-c5ccsc5)cc4[nH]3)[nH]nc2c1` [Example 110, 3-(6-Thiophen-3-yl-1H-benzoimidazol-2-yl)-2H-indazole], the IC50 fell in the range of 0.3 to 3 µM.

With `FC(F)(F)c1cccc(-c2ccc3nc(-c4[nH]nc5ccccc45)[nH]c3c2)c1` [Example 111, 3-[6-(3-Trifluoromethyl-phenyl)-1H-benzoimidazol-2-yl]-2H-indazole], the IC50 was greater than 3 µM.

`FC(F)(F)c1ccc(-c2ccc3nc(-c4[nH]nc5ccccc45)[nH]c3c2)cc1` [Example 112, 3-[6-(4-Trifluoromethyl-phenyl)-1H-benzoimidazol-2-yl]-2H-indazole]: the IC50 is greater than 3 µM. `Clc1cccc(-c2ccc3nc(-c4[nH]nc5ccccc45)[nH]c3c2)c1` [Example 113, 3-[6-(3-Chloro-phenyl)-1H-benzoimidazol-2-yl]-2H-indazole]: the IC50 lay within 0.3 to 3 µM. Turning to `COc1cccc(-c2ccc3nc(-c4[nH]nc5ccccc45)[nH]c3c2)c1` [Example 114, 3-[6-(3-Methoxy-phenyl)-1H-benzoimidazol-2-yl]-2H-indazole], the IC50 lay within 0.3 to 3 µM. Regarding `Cc1cc(C)cc(-c2ccc3nc(-c4[nH]nc5ccccc45)[nH]c3c2)c1` [Example 115, 3-[6-(3,5-Dimethyl-phenyl)-1H-benzoimidazol-2-yl]-2H-indazole], the IC50 was in the range of 0.3 to 3 µM.

Consider `Cc1ccc(-c2ccc3nc(-c4[nH]nc5ccccc45)[nH]c3c2)cc1C` [Example 116, 3-[6-(3,4-Dimethyl-phenyl)-1H-benzoimidazol-2-yl]-2H-indazole], for which the IC50 is greater than 3 µM. On to `c1ccc2c(-c3nc4ccc(-c5ccc6c(c5)OCO6)cc4[nH]3)[nH]nc2c1` [Example 117, 3-(6-Benzo[1,3]dioxole-5-yl-1H-benzoimidazol-2-yl)-2H-indazole], for which the IC50 lay within 0.3 to 3 µM.

As for `CC(C)(C)c1ccc(-c2ccc3nc(-c4[nH]nc5ccccc45)[nH]c3c2)cc1` [Example 118, 3-[6-(4-tert-Butyl-phenyl)-1H-benzoimidazol-2-yl]-2H-indazole], the IC50 was greater than 3 µM.

As to `CCCC/C=C/c1ccc2nc(-c3[nH]nc4ccccc34)[nH]c2c1` [Example 119, 3-(6-Hex-1-enyl-1H-benzoimidazol-2-yl)-2H-indazole], the IC50 lay within 0.3 to 3 µM. Regarding `COc1ccc(-c2ccc3nc(-c4[nH]nc5ccccc45)[nH]c3c2)cc1OC` [Example 120, 3-[6-(3,4-Dimethoxy-phenyl)-1H-benzoimidazol-2-yl]-2H-indazole], the IC50 was 0.3 to 3 µM. As to `Oc1cccc(-c2ccc3nc(-c4[nH]nc5ccccc45)[nH]c3c2)c1` [Example 121, 3-[2-(2H-Indazol-3-yl)-3H-benzoimidazol-5-yl]-phenol], the IC50 lay in the range of 0.3 to 3 µM. On to `Oc1ccc(-c2ccc3nc(-c4[nH]nc5ccccc45)[nH]c3c2)cc1` [Example 122, 4-[2-(2H-Indazol-3-yl)-3H-benzoimidazol-5-yl]-phenol], for which the IC50 was in the range of 0.3 to 3 µM. In the case of `Clc1ccc(-c2ccc3nc(-c4[nH]nc5ccccc45)[nH]c3c2)cc1Cl` [Example 123, 3-[6-(3,4-Dichloro-phenyl)-1H-benzoimidazol-2-yl]-2H-indazole], the IC50 is greater than 3 µM. The same measure for `FC(F)(F)Oc1ccc(-c2ccc3nc(-c4[nH]nc5ccccc45)[nH]c3c2)cc1` [Example 124, 3-[6-(4-Trifluoromethoxy-phenyl)-1H-benzoimidazol-2-yl]-2H-indazole]: greater than 3 µM; for `CC(=O)c1ccc(-c2ccc3nc(-c4[nH]nc5ccccc45)[nH]c3c2)cc1` [Example 125, 1-{4-[2-(2H-Indazol-3-yl)-3H-benzoimidazol-5-yl]-phenyl}-ethanone]: greater than 3 µM; for `c1ccc2sc(-c3ccc4nc(-c5[nH]nc6ccccc56)[nH]c4c3)cc2c1` [Example 126, 3-(6-Benzo[b]thiophen-2-yl-1H-benzoimidazol-2-yl)-2H-indazole]: greater than 3 µM. With `COc1cc(-c2ccc3nc(-c4[nH]nc5ccccc45)[nH]c3c2)cc(OC)c1OC` [Example 127, 3-[6-(3,4,5-Trimethoxy-phenyl)-1H-benzoimidazol-2-yl]-2H-indazole], the IC50 lay within 0.3 to 3 µM.

`CC(=O)c1ccc(-c2ccc3nc(-c4[nH]nc5ccccc45)[nH]c3c2)s1` [Example 128, 1-{5-[2-(2H-Indazol-3-yl)-3H-benzoimidazol-5-yl]-thiophen-2-yl}-ethanone]: the IC50 was 0.3 to 3 µM.

Turning to `CC(=O)c1cccc(-c2ccc3nc(-c4[nH]nc5ccccc45)[nH]c3c2)c1` [Example 129, 1-{3-[2-(2H-Indazol-3-yl)-3H-benzoimidazol-5-yl]-phenyl}-ethanone], the IC50 was greater than 3 µM. Regarding `c1ccc(COc2ccc(-c3ccc4nc(-c5[nH]nc6ccccc56)[nH]c4c3)cc2)cc1` [Example 130, 3-[6-(4-Benzyloxy-phenyl)-1H-benzoimidazol-2-yl]-2H-indazole], the IC50 was greater than 3 µM. The same measure for `Fc1cc(-c2ccc3nc(-c4[nH]nc5ccccc45)[nH]c3c2)ccc1-c1ccccc1` [Example 131, 3-[6-(2-Fluoro-biphenyl-4-yl)-1H-benzoimidazol-2-yl]-2H-indazole]: greater than 3 µM; for `c1ccc2c(-c3nc4ccc(-c5csc6ccccc56)cc4[nH]3)[nH]nc2c1` [Example 132, 3-(6-Benzo[b]thiophen-3-yl-1H-benzoimidazol-2-yl)-2H-indazole]: greater than 3 µM; for `OCc1cccc(-c2ccc3nc(-c4[nH]nc5ccccc45)[nH]c3c2)c1` [Example 133, {3-[2-(2H-Indazol-3-yl)-3H-benzoimidazol-5-yl]-phenyl}-methanol]: 0.3 to 3 µM.
